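Step 1: Grow cells in 96-well plates. Step 2: Expose to compound for 48 hours at 5 concentrations. Step 3: Interpolate endpoints linearly; if unreached, use highest concentration. Here, GI50 denotes the concentration required for 50% inhibition of growth.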 The source made the active and inactive calls. Rule as the data show it: active = GI50 up to about 1.1 µM and inactive = higher.

Common to all, as to test: NCI-60 cell line screen, 48 h
The subject of assay [1] is CAKI-1.
Assay [2] has as its system CCRF-CEM.
Assay [3] concerns DU-145.
Assay [4] concerns EKVX.
Assay [5] concerns HL-60.
Assay [6] relates to HOP-92.
The test system of assay [7] is HT-29.
Assay [8] relates to LOX IMVI.
Assay [9] concerns M14.
For assay [10], the system named is MDA-MB-435.
In assay [11] the test system is NCI-H23.
Assay [12] deals with NCI-H460.
Assay [13] has as its system OVCAR-3.
Assay [14] relates to OVCAR-4.
Assay [15] deals with RXF 393.
The subject of assay [16] is SF-295.
Assay [17] has as its system SF-539.
In assay [18] the test system is SK-MEL-2.
In assay [19] the test system is SNB-75.
Assay [20] deals with Malme-3M.

As for `Cc1cc(C)c2c(c1)C1=NCCN1C2(O)c1ccc(Cl)cc1` (stereo unspecified), the GI50 is 15.1 µM (inactive) in assay [1]; 17.2 µM (inactive) in assay [2]; 19.5 µM (inactive) in assay [3]; 16.1 µM (inactive) in assay [4]; 19.9 µM (inactive) in assay [5]; 7.35 µM (inactive) in [6]. Also, the GI50 in assay [7] is 16.5 µM (inactive); in assay [8] it was 29.3 µM (inactive); in assay [9] it was 14.5 µM (inactive); in [10] it was 16.7 µM (inactive); in assay [11], 17.8 µM (inactive); in [12], 14.9 µM (inactive). The GI50 in assay [13] was 15.5 µM (inactive); in [14] it was 15.5 µM (inactive); in assay [15], 13.6 µM (inactive); in assay [16], 15.7 µM (inactive); in [17], 15.3 µM (inactive); in assay [18], 18.5 µM (inactive). The GI50 in [19] was 12.3 µM (inactive).
As for `S=C(S)NCCN1CCNCC1`, the GI50 is 39.5 µM (inactive) in [1]; 21.1 µM (inactive) in [2]; 36.1 µM (inactive) in assay [3]; 57.1 µM (inactive) in assay [4]; < 0.01 µM (active) in assay [5]; 75.9 µM (inactive) in assay [6]. Also, the GI50 in assay [7] was 59.7 µM (inactive); in assay [8], 40.1 µM (inactive); in assay [9] it was 31.2 µM (inactive); in assay [10] it was 62.1 µM (inactive); in assay [20], 25.4 µM (inactive); in assay [11], > 100 µM (inactive). Besides, the GI50 in assay [12] was 34.6 µM (inactive); in [13] it was 22.4 µM (inactive); in assay [14], > 100 µM (inactive); in [15], 19.8 µM (inactive); in assay [16] it was > 100 µM (inactive); in assay [18] it was 67.1 µM (inactive). Also, the GI50 in [19] is > 100 µM (inactive).
As to `CSC(=S)NN=C1CCCC1.CSC(=S)NN=C1CCCC1.[Zn+2]`, the GI50 in [1] was 46.7 µM (inactive); in [2], < 0.01 µM (active); in assay [3], 58.5 µM (inactive); in assay [4], 55.1 µM (inactive); in [6], 0.0415 µM (active); in assay [7] it was 19.5 µM (inactive). Moreover, the GI50 in assay [8] is 10.7 µM (inactive); in assay [9], 40.1 µM (inactive); in assay [10], 28.4 µM (inactive); in assay [20], 12.5 µM (inactive); in assay [11] it was > 100 µM (inactive); in [12] it was 31.6 µM (inactive). Besides, the GI50 in assay [13] is 24.6 µM (inactive); in assay [14], 52.5 µM (inactive); in [15], 28.4 µM (inactive); in assay [16], 16.8 µM (inactive); in assay [17], 21.3 µM (inactive); in assay [18], 22.7 µM (inactive). For the same compound, the GI50 in [19] is > 100 µM (inactive).
As for `Cc1ccc(Nc2nc(C)c(C(=O)CC(=O)C(=O)Nc3ccc(Cl)cc3)s2)cc1`, the GI50 in assay [1], in assay [2], in assay [3], in assay [4], in assay [5] and in assay [6] was > 100 µM (inactive) in each case. Further, the GI50 in assay [8] is > 100 µM (inactive); in [9] it was > 100 µM (inactive); in assay [10] it was > 100 µM (inactive); in assay [20], 76.6 µM (inactive); in assay [11], > 100 µM (inactive); in assay [12], > 100 µM (inactive). Moreover, the GI50 in [13] is > 100 µM (inactive); in assay [15] it was > 100 µM (inactive); in assay [16], > 100 µM (inactive); in assay [17] it was > 100 µM (inactive); in assay [18], > 100 µM (inactive); in assay [19], 30.9 µM (inactive).
On to `NC(Cc1nnn[nH]1)C(=O)O` (stereo unspecified), for which the GI50 in assay [1], in assay [2], in assay [3], in assay [4], in assay [6] and in [7] was > 100 µM (inactive) throughout. In addition, the GI50 in assay [8], in assay [9], in assay [10], in assay [20], in assay [11] and in assay [12] was > 100 µM (inactive) each time. Further, the GI50 in assay [13], in [14], in assay [15], in assay [16], in assay [17] and in assay [18] was > 100 µM (inactive) each time. The GI50 in [19] was > 100 µM (inactive).
For `COc1ccc(C2=C3SC=c4ccccc4=C3ON=C2c2ccccc2)cc1`, the GI50 in [1] is > 100 µM (inactive); in assay [2] it was 84.3 µM (inactive); in [3], > 100 µM (inactive); in assay [4] it was > 100 µM (inactive); in [5], > 100 µM (inactive); in assay [6], 68.1 µM (inactive). Further, the GI50 in [7], in [8], in assay [9], in assay [10], in assay [20] and in assay [11] was > 100 µM (inactive) throughout. Further, the GI50 in assay [12] was > 100 µM (inactive); in assay [13], 94.8 µM (inactive); in assay [14], > 100 µM (inactive); in [15], > 100 µM (inactive); in assay [16] it was > 100 µM (inactive); in assay [17], > 100 µM (inactive). Besides, the GI50 in [18] is > 100 µM (inactive).
In the case of `COc1cc(/C=N/c2nc3cc4sc(/N=C/c5cc(OC)c(OC)c(OC)c5)nc4cc3s2)cc(OC)c1OC`, the GI50 in assay [1] was > 100 µM (inactive); in assay [3], > 100 µM (inactive); in assay [4] it was 42 µM (inactive); in assay [5] it was 57.1 µM (inactive); in assay [6] it was > 100 µM (inactive); in [7], 52.7 µM (inactive). Also, the GI50 is 42.9 µM (inactive) in [8]; 66.8 µM (inactive) in [9]; 39.1 µM (inactive) in assay [10]; > 100 µM (inactive) in [20]; 56.1 µM (inactive) in [11]; 21.5 µM (inactive) in [12]. Also, the GI50 in assay [13] is 32.7 µM (inactive); in assay [14], > 100 µM (inactive); in assay [15] it was > 100 µM (inactive); in assay [16] it was 56.8 µM (inactive); in [17], 17.9 µM (inactive); in [18] it was 72.4 µM (inactive). Besides, the GI50 in [19] was 75 µM (inactive).
For the compound `C[N+](C)(C)CC(=O)N/N=C(\Cc1nc2ccc([N+](=O)[O-])cc2nc1O)C(=O)Nc1nc2ccc([N+](=O)[O-])cc2s1`, the GI50 in assay [1] was 24.6 µM (inactive); in assay [2], 40.9 µM (inactive); in [3] it was 39.4 µM (inactive); in [4] it was 25 µM (inactive); in [5] it was > 100 µM (inactive); in [6], 29 µM (inactive). The GI50 is 45.6 µM (inactive) in assay [7]; 35.6 µM (inactive) in [8]; 55.1 µM (inactive) in assay [9]; 85.1 µM (inactive) in assay [10]; 30.7 µM (inactive) in [11]; 23.4 µM (inactive) in assay [12]. Further, the GI50 in [13] is 31.8 µM (inactive); in assay [14], 30 µM (inactive); in assay [15], 41.3 µM (inactive); in assay [16], 51.8 µM (inactive); in assay [17], 31.8 µM (inactive); in assay [18] it was 28.1 µM (inactive). Besides, the GI50 in [19] was 21.5 µM (inactive).
